The experiment has as its target T1, WIZ protein (HiBit-WIZ fusion protein) (Homo sapiens, UniProt O95785+Q96SW2).
T1 construct: expressed in transfected cells
As to the kind of experiment: Quantification of WIZ protein levels in HiBit tag fusion protein assay (WIZ HiBit assay in 293T cells). In kind it is cell-based. The note with it: for Dmax at 25 µM / remaining activity at 25 µM: HEK-293T, 293T cells; for Dmax at 25 µM: 100 − Amax, read-out: % degradation of WIZ (100 − Amax); for remaining activity at 25 µM: DMSO-normalized, curve-fitted percentage of WIZ-HiBit remaining at 25 uM, read-out: WIZ Amax; for DC50: WIZ HiBit assay in 293T cells, 10-point, 5-fold dose response, highest concentration 25 μM, about 18 hours, read-out: WIZ AC50. Summed up: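 Luminescence after LgBit complementation quantified remaining HiBit-WIZ in lysates of single-copy stable 293T lines. Cells dosed ~18 h at 37 °C with 10-point, 5-fold dilutions (highest 25 μM); DMSO set to 100%, fitted curve gave % remaining at 25 μM (Amax).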

Some results are limits rather than exact numbers.

Experimental findings from patent publication US11787785B2 (NOVARTIS AG, priority 2021, dated 2023) are described below.

T1 sequence (O95785 whole entry, the tested form may be a part): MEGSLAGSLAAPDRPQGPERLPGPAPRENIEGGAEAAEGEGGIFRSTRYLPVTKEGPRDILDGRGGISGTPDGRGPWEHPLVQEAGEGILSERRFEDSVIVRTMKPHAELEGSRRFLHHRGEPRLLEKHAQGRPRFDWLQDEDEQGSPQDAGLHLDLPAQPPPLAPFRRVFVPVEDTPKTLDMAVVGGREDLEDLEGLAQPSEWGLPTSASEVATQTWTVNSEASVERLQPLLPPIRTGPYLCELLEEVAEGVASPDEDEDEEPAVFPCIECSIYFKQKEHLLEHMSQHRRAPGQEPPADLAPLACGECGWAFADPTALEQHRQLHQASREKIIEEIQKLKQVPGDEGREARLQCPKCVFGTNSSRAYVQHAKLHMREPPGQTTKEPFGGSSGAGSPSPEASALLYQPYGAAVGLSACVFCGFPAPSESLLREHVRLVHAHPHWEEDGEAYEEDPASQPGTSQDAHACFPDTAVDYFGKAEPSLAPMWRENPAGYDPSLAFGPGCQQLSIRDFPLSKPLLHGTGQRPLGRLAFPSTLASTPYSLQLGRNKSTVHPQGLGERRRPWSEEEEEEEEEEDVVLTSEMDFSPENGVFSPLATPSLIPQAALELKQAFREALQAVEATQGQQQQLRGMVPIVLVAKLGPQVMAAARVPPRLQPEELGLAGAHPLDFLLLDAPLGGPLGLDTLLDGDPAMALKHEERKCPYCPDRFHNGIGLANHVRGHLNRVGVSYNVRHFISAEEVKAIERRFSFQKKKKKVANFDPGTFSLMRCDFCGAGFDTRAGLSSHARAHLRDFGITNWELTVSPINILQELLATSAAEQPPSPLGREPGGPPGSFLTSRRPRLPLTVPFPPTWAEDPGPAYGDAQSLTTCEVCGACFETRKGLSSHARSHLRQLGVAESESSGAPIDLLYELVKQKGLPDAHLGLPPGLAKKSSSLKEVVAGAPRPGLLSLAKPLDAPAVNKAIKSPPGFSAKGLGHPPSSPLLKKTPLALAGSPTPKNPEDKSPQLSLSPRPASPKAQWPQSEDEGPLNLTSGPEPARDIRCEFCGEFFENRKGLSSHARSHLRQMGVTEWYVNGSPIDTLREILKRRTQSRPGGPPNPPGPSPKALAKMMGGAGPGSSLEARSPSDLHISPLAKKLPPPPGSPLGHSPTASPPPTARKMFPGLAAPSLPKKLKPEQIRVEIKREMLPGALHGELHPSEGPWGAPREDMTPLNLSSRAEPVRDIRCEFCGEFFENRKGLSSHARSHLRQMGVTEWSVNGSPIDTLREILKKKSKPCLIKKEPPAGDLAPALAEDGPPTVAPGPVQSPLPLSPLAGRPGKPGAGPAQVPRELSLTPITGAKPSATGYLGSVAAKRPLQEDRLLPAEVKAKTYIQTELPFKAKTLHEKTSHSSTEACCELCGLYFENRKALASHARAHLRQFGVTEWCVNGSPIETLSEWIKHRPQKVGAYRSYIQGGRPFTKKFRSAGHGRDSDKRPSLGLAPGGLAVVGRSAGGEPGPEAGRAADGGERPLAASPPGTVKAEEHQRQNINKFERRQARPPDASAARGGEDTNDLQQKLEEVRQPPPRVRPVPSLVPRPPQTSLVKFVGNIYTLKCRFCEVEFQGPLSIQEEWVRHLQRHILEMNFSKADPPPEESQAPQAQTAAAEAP
T1 sequence (Q96SW2 whole entry, the tested form may be a part): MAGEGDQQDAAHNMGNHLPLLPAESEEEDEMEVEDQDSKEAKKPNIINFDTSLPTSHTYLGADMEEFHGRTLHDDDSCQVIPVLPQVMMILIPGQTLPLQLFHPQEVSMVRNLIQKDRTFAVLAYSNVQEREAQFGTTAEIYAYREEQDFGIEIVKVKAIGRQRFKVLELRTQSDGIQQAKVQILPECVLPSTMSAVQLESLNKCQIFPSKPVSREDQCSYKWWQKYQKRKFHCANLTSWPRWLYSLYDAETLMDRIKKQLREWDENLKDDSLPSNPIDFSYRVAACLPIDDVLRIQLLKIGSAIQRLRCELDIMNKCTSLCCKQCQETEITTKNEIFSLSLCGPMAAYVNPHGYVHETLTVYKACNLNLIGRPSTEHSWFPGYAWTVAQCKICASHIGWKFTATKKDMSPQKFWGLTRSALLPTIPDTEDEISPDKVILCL
T1 sequence (Q16531 whole entry partner, the tested form may be a part): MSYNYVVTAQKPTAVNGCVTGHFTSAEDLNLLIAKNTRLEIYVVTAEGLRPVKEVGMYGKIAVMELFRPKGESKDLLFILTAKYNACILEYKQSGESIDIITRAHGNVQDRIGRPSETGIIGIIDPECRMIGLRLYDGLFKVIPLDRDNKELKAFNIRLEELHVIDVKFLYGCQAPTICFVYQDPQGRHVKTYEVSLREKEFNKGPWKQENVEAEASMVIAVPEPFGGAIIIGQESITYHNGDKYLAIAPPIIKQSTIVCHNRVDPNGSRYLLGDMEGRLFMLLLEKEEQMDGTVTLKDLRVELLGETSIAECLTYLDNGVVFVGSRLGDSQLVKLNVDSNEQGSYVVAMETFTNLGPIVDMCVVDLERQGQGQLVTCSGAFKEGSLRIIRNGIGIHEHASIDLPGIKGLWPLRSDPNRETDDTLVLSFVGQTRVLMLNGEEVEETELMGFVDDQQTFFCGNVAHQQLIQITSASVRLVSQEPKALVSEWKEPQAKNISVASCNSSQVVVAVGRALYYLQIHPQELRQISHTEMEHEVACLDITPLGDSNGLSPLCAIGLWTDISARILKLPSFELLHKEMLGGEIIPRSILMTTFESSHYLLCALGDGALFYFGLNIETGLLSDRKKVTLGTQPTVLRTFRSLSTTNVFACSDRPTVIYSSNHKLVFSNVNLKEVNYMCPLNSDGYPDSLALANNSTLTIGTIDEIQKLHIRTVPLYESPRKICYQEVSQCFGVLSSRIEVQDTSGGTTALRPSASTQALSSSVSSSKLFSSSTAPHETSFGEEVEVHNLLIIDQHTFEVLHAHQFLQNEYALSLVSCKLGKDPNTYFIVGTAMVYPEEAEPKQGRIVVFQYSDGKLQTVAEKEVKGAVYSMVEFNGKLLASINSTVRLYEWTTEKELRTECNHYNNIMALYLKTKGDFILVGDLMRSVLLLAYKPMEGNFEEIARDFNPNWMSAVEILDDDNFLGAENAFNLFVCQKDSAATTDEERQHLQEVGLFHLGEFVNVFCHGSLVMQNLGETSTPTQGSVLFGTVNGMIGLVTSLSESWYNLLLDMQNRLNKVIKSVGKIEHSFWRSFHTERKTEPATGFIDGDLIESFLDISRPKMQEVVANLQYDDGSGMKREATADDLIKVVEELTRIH

`O=C1CCN(c2cnn3ccc(CC4CCN(CC(F)F)CC4)cc23)C(=O)N1` [Example 43, 1-(5-((1-(2,2-difluoroethyl)piperidin-4-yl)methyl)pyrazolo[1,5-a]pyridin-3-yl)dihydropyrimidine-2,4(1H,3H)-dione]: the Dmax at 25 µM is 70%, the remaining activity at 25 µM amounted to 30% and the DC50 is 34 nM.

With `C[C@H]1C[C@H](Cc2ccn3ncc(N4CCC(=O)NC4=O)c3c2)CCN1CC(F)(F)F` [Example 275, 1-(5-(((2S,4R)-2-methyl-1-(2,2,2-trifluoroethyl)piperidin-4-yl)methyl)pyrazolo[1,5-a]pyridin-3-yl)dihydropyrimidine-2,4(1H,3H)-dione], the Dmax at 25 µM worked out at 79%, the remaining activity at 25 µM was found to be 21% and the DC50 came to 20 nM.

As to `Cc1cn(-c2cnn3ccc(C[C@@H]4CCN(CC5CCC(F)(F)CC5)[C@@H](C)C4)cc23)c(=O)[nH]c1=O` [Example 351, 1-(5-(((2S,4R)-1-((4,4-difluorocyclohexyl)methyl)-2-methylpiperidin-4-yl)methyl)pyrazolo[1,5-a]pyridin-3-yl)-5-methylpyrimidine-2,4(1H,3H)-dione], the Dmax at 25 µM is 91%, the remaining activity at 25 µM was 9% and the DC50 was found to be 47 nM.

For the compound `O=C1CCN(c2cnn3ccc(CC4CCN(C(=O)OC5CCCCC5)CC4)cc23)C(=O)N1` [Example 96], the Dmax at 25 µM is 42%, the remaining activity at 25 µM stood at 58% and the DC50 is greater than 25000 nM.

Turning to `O=C1CCN(c2cnn3ccc(CC4CCN(CC5CCC5)C4)cc23)C(=O)N1` (stereo not drawn) [Example 130], the Dmax at 25 µM came out at 36%, the remaining activity at 25 µM is 64% and the DC50 is 1320 nM.

On to `C[C@H]1C[C@H](Cc2ccn3ncc(N4CCC(=O)NC4=O)c3c2)CCN1CC1CCCCCC1` [Example 147], for which the Dmax at 25 µM turned out to be 90%, the remaining activity at 25 µM turned out to be 10% and the DC50 was 5 nM.

For `COCCN1CCC(Cc2ccn3ncc(N4CCC(=O)NC4=O)c3c2)CC1` [Example 34, 1-(5-((1-(2-methoxyethyl)piperidin-4-yl)methyl)pyrazolo[1,5-a]pyridin-3-yl)dihydropyrimidine-2,4(1H,3H)-dione], the Dmax at 25 µM is 73%, the remaining activity at 25 µM is 27% and the DC50 stood at 945 nM.

With `O=C1CCN(c2cnn3ccc(CC4CCN(CC5CCCCCC5)CC4)cc23)C(=O)N1` [Example 8, 1-(5-((1-(cycloheptylmethyl)piperidin-4-yl)methyl)pyrazolo[1,5-a]pyridin-3-yl)dihydropyrimidine-2,4(1H,3H)-dione], the Dmax at 25 µM was determined as 86%, the remaining activity at 25 µM turned out to be 14% and the DC50 was found to be 8 nM.

Turning to `O=C1CCN(c2cnn3ccc(CC4CCCN(CC5CCCCC5)CC4)cc23)C(=O)N1` (stereo not drawn) [Example 272, 1-(5-((1-(cyclohexylmethyl)azepan-4-yl)methyl)pyrazolo[1,5-a]pyridin-3-yl)dihydropyrimidine-2,4(1H,3H)-dione], the Dmax at 25 µM came to 69%, the remaining activity at 25 µM was determined as 31% and the DC50 worked out at 25 nM.

On to `CC(C)CN1CCN(Cc2ccn3ncc(-n4cc(C5CC5)c(=O)[nH]c4=O)c3c2)C[C@@H]1C` [Example 361, (S)-5-cyclopropyl-1-(5-((4-isobutyl-3-methylpiperazin-1-yl)methyl)pyrazolo[1,5-a]pyridin-3-yl)pyrimidine-2,4(1H,3H)-dione], for which the Dmax at 25 µM was determined as 0%, the remaining activity at 25 µM amounted to 100% and the DC50 is greater than 25000 nM.

Take `CC(C)S(=O)(=O)N1C[C@@H]2C[C@H]1CN2Cc1ccn2ncc(N3CCC(=O)NC3=O)c2c1` [Example 238, 1-(5-(((1S,4S)-5-(isopropylsulfonyl)-2,5-diazabicyclo[2.2.1]heptan-2-yl)methyl)pyrazolo[1,5-a]pyridin-3-yl)dihydropyrimidine-2,4(1H,3H)-dione]: the Dmax at 25 µM was determined as 19%, the remaining activity at 25 µM amounted to 81% and the DC50 is 754 nM.
